Earlier results, collected in patent EP2497775A1, “Ferrocene-based compounds and their use as ROS regulating prodrugs” (Ruprecht-Karls-Universität Heidelberg, priority 2011, dated 2012).

Columns and labels:
[1] = test system: different neuroblastoma cell lines; conditions: ref. [2]; cited from earlier work
WiDr (Human, colon) = conditions: ref. [1]; cited from earlier work
(Human, breast) = conditions: ref. [1]; cited from earlier work
8226 (Human myeloma) = conditions: ref. [1]; cited from earlier work
SW480 (Human, colon) = conditions: ref. [3]; cited from earlier work
HT29 (Human, colon) = conditions: ref. [4]; cited from earlier work
HCT8 (colon) = conditions: ref. [8]; cited from earlier work
HL-60 (leukemia) = conditions: ref. [8]; cited from earlier work
Human multiple myeloma = conditions: ref. [7]; cited from earlier work

CCCCS(=N)(=O)CCC(N)C(=O)O (stereo not drawn) [Buthionine sulfoximine (BSO), Buthionine sulfoximine]
IC50 [1]: 300 to 311000 nM
IC50 (WiDr (Human, colon)): 450000 nM
IC50 ((Human, breast)): 850000 nM
IC50 (8226 (Human myeloma)): 2000 nM

CC(=O)Oc1ccccc1C(=O)Oc1cccc(CO[N+](=O)[O-])c1 [NO-ASA]
IC50 (SW480 (Human, colon)): 85000 nM
IC50 (HT29 (Human, colon)): 3000 to 7000 nM

CC1(C)CCC2=C(O1)c1ccccc1C(=O)C2=O [β-Lapachone]
IC50 (HCT8 (colon)): 830 nM
IC50 (HL-60 (leukemia)): 1650 nM
IC50 (Human multiple myeloma): 1000 nM
